# Publication PMC6148290, “Endogenous metabolites of vitamin E limit inflammation by targeting 5-lipoxygenase” (Nature Communications, 2018)
# Like-named read-outs stand apart in the source and are kept apart here.
# Assays:
# [1] = tested on: peripheral blood mononuclear cells; test: Cell viability of PBMC (MTT assay); assay type: cell-based, human; conditions: at 1 and 10 µM (one entry for both); 24 h; n.i. no inhibition
# Experimental: The formazan product was solubilized with SDS (10% in 20 mM HCl), and absorbance was measured at 570 nm using a Multiskan Spectrum microplate reader (Thermo Fisher Scientific).
# [2] = biological target: T1, 5-LO (Homo sapiens, UniProt P09917); test: Activity of purified human recombinant 5-LO (cell-free); assay type: biochemical; design: made in house; host or cells: E. coli Bl21 (DE3)
# T1 sequence (P09917 1-674): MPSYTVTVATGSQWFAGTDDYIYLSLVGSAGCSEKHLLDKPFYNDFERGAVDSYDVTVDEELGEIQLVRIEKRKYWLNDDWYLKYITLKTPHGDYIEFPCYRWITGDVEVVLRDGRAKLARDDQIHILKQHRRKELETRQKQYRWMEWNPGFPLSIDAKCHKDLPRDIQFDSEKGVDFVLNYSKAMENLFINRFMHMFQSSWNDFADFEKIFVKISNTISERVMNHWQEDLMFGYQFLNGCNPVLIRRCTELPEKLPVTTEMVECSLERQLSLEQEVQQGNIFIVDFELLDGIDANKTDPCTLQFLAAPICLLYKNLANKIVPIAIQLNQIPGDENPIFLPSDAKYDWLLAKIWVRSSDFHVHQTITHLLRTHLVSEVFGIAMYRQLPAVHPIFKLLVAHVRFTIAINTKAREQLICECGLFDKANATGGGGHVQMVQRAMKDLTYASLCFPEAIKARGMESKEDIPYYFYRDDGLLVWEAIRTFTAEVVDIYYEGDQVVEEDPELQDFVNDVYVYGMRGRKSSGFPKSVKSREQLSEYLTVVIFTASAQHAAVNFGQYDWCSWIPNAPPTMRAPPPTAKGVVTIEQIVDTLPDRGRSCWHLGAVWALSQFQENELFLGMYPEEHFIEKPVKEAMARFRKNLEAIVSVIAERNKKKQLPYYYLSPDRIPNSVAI
# Experimental: E. coli Bl21 (DE3) cells were transformed with pT3–5LO plasmid to express human recombinant 5-LO, which was purified by affinity chromatography on an ATP-agarose column. In brief, E. coli was lysed in 50 mM triethanolamine/HCl pH 8.0 plus EDTA (5 mM), soybean trypsin inhibitor (60 µg/ml), phenylmethanesulphonyl fluoride (1 mM), dithiothreitol (1 mM), and lysozyme (1 mg/ml). After sonication (3 × 15 s), the homogenate was centrifuged at 10,000 × g for 15 min and the supernatant again at 40,000 × g for 70 min at 4 °C. The supernatant was applied to an ATP-agarose column (Sigma-Aldrich), and the column was washed with (i) PBS pH 7.4, 1 mM EDTA, (ii) 50 mM phosphate buffer pH 7.4, 0.5 M NaCl, 1 mM EDTA, and (iii) 50 mM phosphate buffer pH 7.4, 1 mM EDTA. 5-LO was eluted with 50 mM phosphate buffer pH 7.4, 1 mM EDTA, 20 mM ATP.
# Purified 5-LO (0.5 µg) in PBS pH 7.4 containing EDTA (1 mM) and ATP (1 mM) was pre-incubated with LCMs for 10 min at 4 °C, pre-warmed for 30 s at 37 °C and 5-LO product formation was started by addition of AA (Sigma-Aldrich; 20 µM if not indicated otherwise) plus CaCl2 (2 mM). […] AA was added after incubation for 5 min on ice.
# [3] = LCM concentrations in plasma and peritoneal exudate of mice with peritonitis (UPLC-MS/MS); assay type: in vivo; conditions: CD-1, mouse; for concentration at 240 min: ip, 10 mg/kg i.p., 240 min post zymosan
# Experimental: Mice were killed by inhalation of CO2 after another 30 min for determination of LTC4 levels and vascular permeability and after 4 h for the analysis of LTB4 levels, lipidomic profiles and immune cell infiltration. Cell infiltration and lipid mediator profiles during resolution were studied after 18 h. Peritoneal exudates were collected and cells counted after vital trypan blue staining. LTC4, LTB4, and PGE2 were analyzed in the exudate by enzyme immunoassays (Enzo Life Sciences, Lörrach, Germany) according to manufacturer's instructions. To assess vascular permeability, Evans blue dye (40 mg/kg in saline, 0.3 ml; Sigma-Aldrich) was injected into the tail vain immediately before the induction of peritonitis. Exudates were centrifuged (3000 × g, 5 min) and the absorbance of the supernatants was measured at 610 nm using a Beckman Coulter DU730 spectrophotometer. To investigate the effect of α-T (1a) on the accumulation of α-T-13'-COOH (4a) in infiltrated leukocytes after peritonitis has been established, vehicle or α-[…].) were given 1 h before and/or 4 h post zymosan injection, and mice were killed after another 1.5 h. Leukocytes were obtained from peritoneal exudates by centrifugation (1200 × g, 10 min, 4 °C). Lipids, including LCMs, were extracted from PMNL, murine peritoneal exudates or murine plasma by successive addition of PBS pH 7.4, methanol, chloroform and saline (final ratio: 14:34:35:17)[68]. […] Multiple reaction monitoring was used to detect LCMs in the negative ion mode. The precursor-to-product ion transitions were selected according to Jiang et al.[69] and are listed in Supplementary Table 3. The ion spray voltage was set to -4500 V, the heated capillary temperature to 450 °C, the sheath gas pressure to 50 psi, the auxiliary gas pressure to 40 psi, and the declustering potential to 80 eV (for Ts) or 110 eV (for TEs). Collision energies and lower limits of quantitation are listed in Supplementary Table 3.
smiles,measurement,setting,value
"Cc1c(C)c2c(c(C)c1O)CC[C@@](C)(CCCC(C)CCCC(C)CCCC(C)C(=O)O)O2 (stereo partly drawn) [4a, 13-((2R)-6-hydroxy-2,5,7,8-tetramethylchroman-2-yl)-2,6,10-trimethyltridecanoic acid]","Cell viability/peripheral blood mononuclear cells, residual viability",[1],n.i.
same,IC50,[2],270 ± 10 nM
same,concentration at 30 min,"[3]; peritoneal exudate, endogenous, 30 min post zymosan injection, read-out: α-T-13′-COOH (4a) concentration in peritoneal exudate",≤ 200 nM
same,concentration at 240 min,"[3]; peritoneal exudate, read-out: α-T-13′-COOH (4a) concentration in peritoneal exudate",3900 nM
same,concentration at 240 min,"[3]; plasma, read-out: α-T-13′-COOH (4a) concentration in plasma",1400 nM
